Measured values taken from patent US7772241B2, “Variolin derivatives and their use as antitumor agents” (Pharma Mar S.A., priority 2001, dated 2010).
Read-outs that look alike come from different tables or passages of the source.

Columns and labels:
K-562 = test: Inhibition of cells growth by colorimetric (SRB) assay, K-562; conditions: SRB assay, 48 hours exposure; for GI50: read-out: GI50 K-562; for CC50: read-out: LC50 K-562
Outline: (§1)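 Human tumour cells in RPMI 1640 with 10% FBS were seeded at 5×10^3 cells/well, allowed to attach for 18 h, then exposed to samples at 10 to 10^−8 μg/ml for 48 h. Growth was measured by SRB staining after TCA fixation, with absorbance read at 490 nm in triplicate wells.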

A-549 = test: Inhibition of cells growth by colorimetric (SRB) assay, A-549
Outline: as §1

SK-MEL-28 = test: Inhibition of cells growth by colorimetric (SRB) assay, SK-MEL-28
Outline: as §1

HT-29 = test: Inhibition of cells growth by colorimetric (SRB) assay, HT-29
Outline: as §1

LoVo = test: Inhibition of cells growth by colorimetric (SRB) assay, LoVo
Outline: as §1

LoVo-Dox = test: Inhibition of cells growth by colorimetric (SRB) assay, LoVo-Dox
Outline: as §1

DU-145 = test: Inhibition of cells growth by colorimetric (SRB) assay, DU-145; conditions: for CC50: read-out: LC50 DU-145
Outline: as §1

LNCaP = test: Inhibition of cells growth by colorimetric (SRB) assay, LNCaP; conditions: SRB assay, 48 hours exposure; for GI50: read-out: GI50 LN-caP; for CC50: read-out: LC50 LN-caP
Outline: as §1

SK-BR-3 = test: Inhibition of cells growth by colorimetric (SRB) assay, SK-BR-3
Outline: as §1

IGROV-1 = test: Inhibition of cells growth by colorimetric (SRB) assay, IGROV-1
Outline: as §1

IGROV-ET = test: Inhibition of cells growth by colorimetric (SRB) assay, IGROV-ET; conditions: for GI50: read-out: GI50 IGROV-ET
Outline: as §1

SK-OV-3 = test: Inhibition of cells growth by colorimetric (SRB) assay, SK-OV-3; conditions: SRB assay, 48 hours exposure; for GI50: read-out: GI50 SKOV-3
Outline: as §1

PANC-1 = test: Inhibition of cells growth by colorimetric (SRB) assay, PANC-1
Outline: as §1

[1] = Inhibition of cells growth by colorimetric (SRB) assay, HMEC1; conditions: human, HMEC1 cells, LC50 H-MEC-1, SRB assay, 48 hours exposure
HMEC1 = test: as above; conditions: for GI50: Homo sapiens, HMEC-1, 48 h, read-out: GI50 H-MEC-1, SRB assay, 48 hours exposure; for TGI H-MEC-1: SRB assay, 48 hours exposure, in M (unit assumed)

With CCOc1nccc(-c2c3cccnc3n3c(N)nccc23)n1.Cl [Compound 82] the “TGI K-562” value (K-562) was 7.32E−07, the GI50 (K-562) was 531 nM and the CC50 (K-562) was 1010 nM. For the same compound, the GI50 (A-549; Homo sapiens, A549, 48 h, read-out: GI50 A-549, SRB assay, 48 hours exposure) was 29200 nM, the CC50 (A-549; Homo sapiens, A549, 48 h, read-out: LC50 A-549, SRB assay, 48 hours exposure) was 29200 nM and the “TGI A-549” value (A-549; SRB assay, 48 hours exposure) was 2.92E−05. The GI50 (SK-MEL-28; Homo sapiens, SK-MEL-28, 48 h, read-out: GI50 MEL-28, SRB assay, 48 hours exposure) was 365 nM, the CC50 (SK-MEL-28; Homo sapiens, SK-MEL-28, 48 h, read-out: LC50 MEL-28, SRB assay, 48 hours exposure) was 1730 nM and the “TGI MEL-28” value (SK-MEL-28; SRB assay, 48 hours exposure) was 7.93E−07. For the same compound, the GI50 (HT-29; Homo sapiens, HT-29, 48 h, read-out: GI50 HT-29, SRB assay, 48 hours exposure) was 712 nM, the “TGI HT-29” value (HT-29; SRB assay, 48 hours exposure) was 2.92E−06 and the GI50 (LoVo; Homo sapiens, LoVo, 48 h, read-out: GI50 LOVO, SRB assay, 48 hours exposure) was 665 nM. For the same compound, the CC50 (LoVo; Homo sapiens, LoVo, 48 h, read-out: LC50 LOVO, SRB assay, 48 hours exposure) was 29200 nM, the “TGI LOVO” value (LoVo; SRB assay, 48 hours exposure) was 2.15E−06 and the GI50 (LoVo-Dox; Homo sapiens, 48 h, read-out: GI50 LOVO-DOX, SRB assay, 48 hours exposure) was 700 nM. The CC50 (LoVo-Dox; Homo sapiens, 48 h, read-out: LC50 LOVO-DOX, SRB assay, 48 hours exposure) was 12100 nM, the “TGI LOVO-DOX” value (LoVo-Dox; SRB assay, 48 hours exposure) was 2.72E−06 and the GI50 (DU-145; Homo sapiens, DU-145, 48 h, read-out: GI50 DU-145, SRB assay, 48 hours exposure) was 715 nM. For the same compound, the “TGI DU-145” value (DU-145; SRB assay, 48 hours exposure) was 1.51E−06, the CC50 (DU-145; SRB assay, 48 hours exposure) was 2920 nM and the “TGI LN-caP” value (LNCaP) was 1.57E−06. It also gave a GI50 (LNCaP) of 887 nM, a CC50 (LNCaP) of 2280 nM and a GI50 (SK-BR-3; Homo sapiens, SK-BR-3, 48 h, read-out: GI50 SK-BR-3, SRB assay, 48 hours exposure) of 560 nM. The CC50 (SK-BR-3; Homo sapiens, SK-BR-3, 48 h, read-out: LC50 SK-BR-3, SRB assay, 48 hours exposure) was 2260 nM, the “TGI SK-BR-3” value (SK-BR-3; SRB assay, 48 hours exposure) was 1.12E−06 and the GI50 (IGROV-1; Homo sapiens, IGROV-1, 48 h, read-out: GI50 IGROV, SRB assay, 48 hours exposure) was 971 nM. The CC50 (IGROV-1; Homo sapiens, IGROV-1, 48 h, read-out: LC50 IGROV, SRB assay, 48 hours exposure) was 29200 nM, the “TGI IGROV” value (IGROV-1; SRB assay, 48 hours exposure) was 1.76E−06 and the CC50 (IGROV-ET; Homo sapiens, 48 h, read-out: LC50 IGROV-ET, SRB assay, 48 hours exposure) was 29200 nM. For the same compound, the “TGI IGROV-ET” value (IGROV-ET; SRB assay, 48 hours exposure) was 2.32E−07, the GI50 (IGROV-ET; SRB assay, 48 hours exposure) was 89 nM and the “TGI SKOV-3” value (SK-OV-3) was 2.91E−06. The GI50 (SK-OV-3) was 992 nM, the GI50 (PANC-1; Homo sapiens, PANC-1, 48 h, read-out: GI50 PANC-1, SRB assay, 48 hours exposure) was 1030 nM and the CC50 (PANC-1; Homo sapiens, PANC-1, 48 h, read-out: LC50 PANC-1, SRB assay, 48 hours exposure) was 29200 nM. For the same compound, the “TGI PANC-1” value (PANC-1; SRB assay, 48 hours exposure) was 6.77E−06, the CC50 at 48 h [1] was 1550 nM and the GI50 (HMEC1) was 341 nM. The “TGI H-MEC-1” value (HMEC1) was 7.29E−07.
For Cl.Nc1nccc2c(-c3ccncn3)c3c(O)ccnc3n12 [Compound 101], the “TGI K-562” value (K-562) was 1.79E−05, the GI50 (K-562) was 5550 nM and the CC50 (K-562) was no less than 33900 nM. The “TGI A-549” value (A-549; SRB assay, 48 hours exposure) was 1.09E−05, the GI50 (A-549; read-out: GI50 A-549, SRB assay, 48 hours exposure) was 2390 nM and the CC50 (A-549; read-out: LC50 A-549, SRB assay, 48 hours exposure) was no less than 33900 nM. For the same compound, the “TGI MEL-28” value (SK-MEL-28; SRB assay, 48 hours exposure) was 1.07E−05, the GI50 (SK-MEL-28; read-out: GI50 MEL-28, SRB assay, 48 hours exposure) was 5220 nM and the CC50 (SK-MEL-28; read-out: LC50 MEL-28, SRB assay, 48 hours exposure) was 21900 nM. The “TGI HT-29” value (HT-29; SRB assay, 48 hours exposure) was 2.35E−05, the GI50 (HT-29; read-out: GI50 HT-29, SRB assay, 48 hours exposure) was 8870 nM and the CC50 (HT-29; read-out: LC50 HT-29, SRB assay, 48 hours exposure) was no less than 33900 nM. For the same compound, the “TGI LOVO” value (LoVo; SRB assay, 48 hours exposure) was 1.41E−05, the GI50 (LoVo; read-out: GI50 LOVO, SRB assay, 48 hours exposure) was 3520 nM and the CC50 (LoVo; read-out: LC50 LOVO, SRB assay, 48 hours exposure) was no less than 33900 nM. The “TGI LOVO-DOX” value (LoVo-Dox; SRB assay, 48 hours exposure) was 1.59E−05, the GI50 (LoVo-Dox; read-out: GI50 LOVO-DOX, SRB assay, 48 hours exposure) was 2350 nM and the CC50 (LoVo-Dox; read-out: LC50 LOVO-DOX, SRB assay, 48 hours exposure) was no less than 33900 nM. The “TGI DU-145” value (DU-145; SRB assay, 48 hours exposure) was 1.80E−06, the GI50 (DU-145; read-out: GI50 DU-145, SRB assay, 48 hours exposure) was 118 nM and the CC50 (DU-145; SRB assay, 48 hours exposure) was no less than 30300 nM. The “TGI LN-caP” value (LNCaP) was 1.32E−07, the GI50 (LNCaP) was 22.4 nM and the CC50 (LNCaP) was 4740 nM. The “TGI SK-BR-3” value (SK-BR-3; SRB assay, 48 hours exposure) was 8.77E−07, the GI50 (SK-BR-3; read-out: GI50 SK-BR-3, SRB assay, 48 hours exposure) was 128 nM and the CC50 (SK-BR-3; read-out: LC50 SK-BR-3, SRB assay, 48 hours exposure) was 10200 nM. For the same compound, the “TGI IGROV” value (IGROV-1; SRB assay, 48 hours exposure) was 1.06E−05, the GI50 (IGROV-1; read-out: GI50 IGROV, SRB assay, 48 hours exposure) was 3790 nM and the CC50 (IGROV-1; read-out: LC50 IGROV, SRB assay, 48 hours exposure) was 29600 nM. For the same compound, the “TGI IGROV-ET” value (IGROV-ET; SRB assay, 48 hours exposure) was 2.08E−05, the GI50 (IGROV-ET; SRB assay, 48 hours exposure) was 6600 nM and the CC50 (IGROV-ET; read-out: LC50 IGROV-ET, SRB assay, 48 hours exposure) was no less than 33900 nM. For the same compound, the “TGI SKOV-3” value (SK-OV-3) was 1.41E−05, the GI50 (SK-OV-3) was 4440 nM and the CC50 (SK-OV-3; read-out: LC50 SKOV-3) was no less than 33900 nM. For the same compound, the “TGI PANC-1” value (PANC-1; SRB assay, 48 hours exposure) was 4.88E−06, the GI50 (PANC-1; read-out: GI50 PANC-1, SRB assay, 48 hours exposure) was 149 nM and the CC50 (PANC-1; read-out: LC50 PANC-1, SRB assay, 48 hours exposure) was no less than 33900 nM. For the same compound, the CC50 at 48 h [1] was 44.4 nM, the GI50 (HMEC1) was 6.77 nM and the “TGI H-MEC-1” value (HMEC1) was 1.57E−08.
